Measurements taken from patent US9815847B2 (Icahn School of Medicine at Mount Sinai, priority 2013, dated 2017).
pIC50: −log10 of the molar value.

How the values were obtained:
DU145 = experiment: Cytotoxicity on DU145 cancer cell line; type: cell-based; conditions: Homo sapiens, DU-145; DU145 prostate cancer; 96 h; 0.01-100 μM
Summary of the method: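 K562 (Bcr-Abl-positive leukaemia) or DU145 prostate cells, 2.5×10^4 per well, dosed 24 h after plating with compound in DMSO at 0.01–100 μM. Assessed 96 h later by microscopic observation and, where needed, viable counts by trypan blue exclusion.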

AKT1 = target: T1, AKT1 (Homo sapiens, UniProt P31749); experiment: Kinase inhibition assay; type: biochemical; conditions: 10 μM ATP; 5-dose IC50 mode
T1 construct: purchased Reaction Biology Corporation
Protocol: (§1) Kinase assays were performed at Reaction Biology Corporation. To a freshly prepared buffer solution was added the target kinase at a concentration of […]. The contents were mixed gently, and then compound 8h dissolved in DMSO was added to the reaction mixture in the appropriate concentration. The mixture was incubated at room temperature for 30 min. prior to addition of ATP to initiate the reaction. Compound 8h was tested in a 5-dose IC50 mode with 10-fold serial dilutions starting at 10 μM. For each of the kinases, a control compound in a 10-dose IC50 mode with 3-fold serial dilutions starting at 20 μM. The control compounds were GW5074 (3-(3,5-dibromo-4-hydroxy-benzylidene)-5-iodo-1,3-dihydro-indol-2-one) for BRAF, CK2a and RAF1, D4476 (4-[4-(2,3-dihydro-1,4-benzodioxin-6-yl)-5-(2-pyridinyl)-1H-imidazol-2-yl]benzamide) for CK1d; Wee1 inhibitor (4-(2-chlorophenyl)-9-hydroxypyrrolo[3,4-c]carbazole-1,3-(2H,6H)-dione) for WEE1 and saturosporine for other kinases. Reaction was carried out at 10 μM ATP concentration.

ALK = target: T2, ALK (Homo sapiens, UniProt Q9UM73); experiment: Kinase inhibition assay; type: biochemical; conditions: 10 μM ATP; 5-dose IC50 mode
T2 construct: purchased Reaction Biology Corporation
Protocol: as §1

ARK5/NUAK1 = target: T3, ARK5/NUAK1 (Homo sapiens, UniProt O60285); experiment: Kinase inhibition assay; type: biochemical; conditions: 10 μM ATP; 5-dose IC50 mode
T3 construct: purchased Reaction Biology Corporation
Protocol: as §1

Aurora A = target: T4, Aurora A (Homo sapiens, UniProt O14965); experiment: Kinase inhibition assay; type: biochemical; conditions: 10 μM ATP; 5-dose IC50 mode
T4 construct: purchased Reaction Biology Corporation
Protocol: as §1

Aurora B = target: T5, Aurora B (Homo sapiens, UniProt Q96GD4); experiment: Kinase inhibition assay; type: biochemical; conditions: 10 μM ATP; 5-dose IC50 mode
T5 construct: purchased Reaction Biology Corporation
Protocol: as §1

CDK2/cyclin A = target: T6, CDK2/cyclin A (Homo sapiens, UniProt P24941); experiment: Kinase inhibition assay; type: biochemical; conditions: 10 μM ATP; 5-dose IC50 mode
T6 construct: purchased Reaction Biology Corporation
Protocol: as §1

CDK4/cyclin D1 = target: T7, CDK4/cyclin D1 (Homo sapiens, UniProt P11802); experiment: Kinase inhibition assay; type: biochemical; conditions: 10 μM ATP; 5-dose IC50 mode
T7 construct: purchased Reaction Biology Corporation
Protocol: as §1

CDK5/p25 = target: T8, CDK5/p25 (Homo sapiens, UniProt Q00535); experiment: Kinase inhibition assay; type: biochemical; conditions: 10 μM ATP; 5-dose IC50 mode
T8 construct: purchased Reaction Biology Corporation
Protocol: as §1

CHK1 = target: T9, CHK1 (Homo sapiens, UniProt O14757); experiment: Kinase inhibition assay; type: biochemical; conditions: 10 μM ATP; 5-dose IC50 mode
T9 construct: purchased Reaction Biology Corporation
Protocol: as §1

EGFR = target: T10, EGFR (Homo sapiens, UniProt P00533); experiment: Kinase inhibition assay; type: biochemical; conditions: 10 μM ATP; 5-dose IC50 mode
T10 construct: purchased Reaction Biology Corporation
Protocol: as §1

FGFR1 = target: T11, FGFR1 (Homo sapiens, UniProt P11362); experiment: Kinase inhibition assay; type: biochemical; conditions: 10 μM ATP; 5-dose IC50 mode
T11 construct: purchased Reaction Biology Corporation
Protocol: as §1

JAK2 = target: T12, JAK2 (Homo sapiens, UniProt O60674); experiment: Kinase inhibition assay; type: biochemical; conditions: 10 μM ATP; 5-dose IC50 mode
T12 construct: purchased Reaction Biology Corporation
Protocol: as §1

JAK3 = target: T13, JAK3 (Homo sapiens, UniProt P52333); experiment: Kinase inhibition assay; type: biochemical; conditions: 10 μM ATP; 5-dose IC50 mode
T13 construct: purchased Reaction Biology Corporation
Protocol: as §1

MEK2 = target: T14, MEK2 (Homo sapiens, UniProt P36507); experiment: Kinase inhibition assay; type: biochemical; conditions: 10 μM ATP; 5-dose IC50 mode
T14 construct: purchased Reaction Biology Corporation
Protocol: as §1

PDGFRb = target: T15, PDGFRb (Homo sapiens, UniProt P09619); experiment: Kinase inhibition assay; type: biochemical; conditions: 10 μM ATP; 5-dose IC50 mode
T15 construct: purchased Reaction Biology Corporation
Protocol: as §1

PIM3 = target: T16, PIM3 (Homo sapiens, UniProt Q86V86); experiment: Kinase inhibition assay; type: biochemical; conditions: 10 μM ATP; 5-dose IC50 mode
T16 construct: purchased Reaction Biology Corporation
Protocol: as §1

PLK2 = target: T17, PLK2 (Homo sapiens, UniProt Q9NYY3); experiment: Kinase inhibition assay; type: biochemical; conditions: 10 μM ATP; 5-dose IC50 mode
T17 construct: purchased Reaction Biology Corporation
Protocol: as §1

RSK4 = target: T18, RSK4 (Homo sapiens, UniProt Q9UK32); experiment: Kinase inhibition assay; type: biochemical; conditions: 10 μM ATP; 5-dose IC50 mode
T18 construct: purchased Reaction Biology Corporation
Protocol: as §1

c-Src = target: T19, c-Src (Homo sapiens, UniProt P12931); experiment: Kinase inhibition assay; type: biochemical; conditions: 10 μM ATP; 5-dose IC50 mode
T19 construct: purchased Reaction Biology Corporation
Protocol: as §1

ABL1 (E255K) = target: T20, ABL1 (E255K) (Homo sapiens, UniProt P00519, E255K); experiment: Inhibition of ABL mutants, kinase assay; type: biochemical; conditions: 10 μM ATP; 5-dose IC50 mode
T20 construct: purchased Reaction Biology Corporation
Protocol: (§2) Kinase assays were performed at Reaction Biology Corporation. To a freshly prepared buffer solution was added the target kinase at a concentration of […]. The contents were mixed gently, and then compound (8h) dissolved in DMSO was added to the reaction mixture in the appropriate concentration. The mixture was incubated at room temperature for 30 min. prior to addition of ATP to initiate the reaction. Compound (8h) was tested in a 5-dose IC50 mode with 10-fold serial dilutions starting at 10 μM. Staurosporine was used as a control compound in a 10-dose IC50 mode with 3-fold serial dilutions starting at 20 μM. Reaction was carried out at 10 μM ATP concentration.

ABL1 (G250E) = target: T21, ABL1 (G250E) (Homo sapiens, UniProt P00519, G250E); experiment: Inhibition of ABL mutants, kinase assay; type: biochemical; conditions: 10 μM ATP; 5-dose IC50 mode
T21 construct: purchased Reaction Biology Corporation
Protocol: as §2

ABL1 (H396P) = target: T22, ABL1 (H396P) (Homo sapiens, UniProt P00519, H396P); experiment: Inhibition of ABL mutants, kinase assay; type: biochemical; conditions: 10 μM ATP; 5-dose IC50 mode
T22 construct: purchased Reaction Biology Corporation
Protocol: as §2

ABL1 (M351T) = target: T23, ABL1 (M351T) (Homo sapiens, UniProt P00519, M351T); experiment: Inhibition of ABL mutants, kinase assay; type: biochemical; conditions: 10 μM ATP; 5-dose IC50 mode
T23 construct: purchased Reaction Biology Corporation
Protocol: as §2

ABL1 (Q252H) = target: T24, ABL1 (Q252H) (Homo sapiens, UniProt P00519, Q252H); experiment: Inhibition of ABL mutants, kinase assay; type: biochemical; conditions: 10 μM ATP; 5-dose IC50 mode
T24 construct: purchased Reaction Biology Corporation
Protocol: as §2

ABL1 (T315I) = target: T25, ABL1 (T315I) (Homo sapiens, UniProt P00519, T315I); experiment: Inhibition of ABL mutants, kinase assay; type: biochemical; conditions: 10 μM ATP; 5-dose IC50 mode
T25 construct: purchased Reaction Biology Corporation
Protocol: as §2

ABL1 (Y253F) = target: T26, ABL1 (Y253F) (Homo sapiens, UniProt P00519, Y253F); experiment: Inhibition of ABL mutants, kinase assay; type: biochemical; conditions: 10 μM ATP; 5-dose IC50 mode
T26 construct: purchased Reaction Biology Corporation
Protocol: as §2

ABL2/ARG = target: T27, ABL2/ARG (Homo sapiens, UniProt P42684); experiment: Inhibition of ABL mutants, kinase assay; type: biochemical; conditions: 10 μM ATP; 5-dose IC50 mode
T27 construct: purchased Reaction Biology Corporation
Protocol: as §2

T14 sequence (P36507 whole entry): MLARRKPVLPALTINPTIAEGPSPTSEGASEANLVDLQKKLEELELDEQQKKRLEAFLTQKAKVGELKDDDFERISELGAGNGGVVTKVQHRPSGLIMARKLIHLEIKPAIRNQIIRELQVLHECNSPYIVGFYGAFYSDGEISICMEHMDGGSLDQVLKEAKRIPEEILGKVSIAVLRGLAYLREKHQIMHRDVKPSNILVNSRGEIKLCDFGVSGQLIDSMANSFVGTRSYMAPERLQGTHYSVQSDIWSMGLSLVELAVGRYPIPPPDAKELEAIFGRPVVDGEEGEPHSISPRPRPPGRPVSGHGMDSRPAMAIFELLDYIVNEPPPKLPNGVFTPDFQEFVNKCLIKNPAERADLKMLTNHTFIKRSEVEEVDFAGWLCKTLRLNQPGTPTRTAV
T12 sequence (O60674 whole entry): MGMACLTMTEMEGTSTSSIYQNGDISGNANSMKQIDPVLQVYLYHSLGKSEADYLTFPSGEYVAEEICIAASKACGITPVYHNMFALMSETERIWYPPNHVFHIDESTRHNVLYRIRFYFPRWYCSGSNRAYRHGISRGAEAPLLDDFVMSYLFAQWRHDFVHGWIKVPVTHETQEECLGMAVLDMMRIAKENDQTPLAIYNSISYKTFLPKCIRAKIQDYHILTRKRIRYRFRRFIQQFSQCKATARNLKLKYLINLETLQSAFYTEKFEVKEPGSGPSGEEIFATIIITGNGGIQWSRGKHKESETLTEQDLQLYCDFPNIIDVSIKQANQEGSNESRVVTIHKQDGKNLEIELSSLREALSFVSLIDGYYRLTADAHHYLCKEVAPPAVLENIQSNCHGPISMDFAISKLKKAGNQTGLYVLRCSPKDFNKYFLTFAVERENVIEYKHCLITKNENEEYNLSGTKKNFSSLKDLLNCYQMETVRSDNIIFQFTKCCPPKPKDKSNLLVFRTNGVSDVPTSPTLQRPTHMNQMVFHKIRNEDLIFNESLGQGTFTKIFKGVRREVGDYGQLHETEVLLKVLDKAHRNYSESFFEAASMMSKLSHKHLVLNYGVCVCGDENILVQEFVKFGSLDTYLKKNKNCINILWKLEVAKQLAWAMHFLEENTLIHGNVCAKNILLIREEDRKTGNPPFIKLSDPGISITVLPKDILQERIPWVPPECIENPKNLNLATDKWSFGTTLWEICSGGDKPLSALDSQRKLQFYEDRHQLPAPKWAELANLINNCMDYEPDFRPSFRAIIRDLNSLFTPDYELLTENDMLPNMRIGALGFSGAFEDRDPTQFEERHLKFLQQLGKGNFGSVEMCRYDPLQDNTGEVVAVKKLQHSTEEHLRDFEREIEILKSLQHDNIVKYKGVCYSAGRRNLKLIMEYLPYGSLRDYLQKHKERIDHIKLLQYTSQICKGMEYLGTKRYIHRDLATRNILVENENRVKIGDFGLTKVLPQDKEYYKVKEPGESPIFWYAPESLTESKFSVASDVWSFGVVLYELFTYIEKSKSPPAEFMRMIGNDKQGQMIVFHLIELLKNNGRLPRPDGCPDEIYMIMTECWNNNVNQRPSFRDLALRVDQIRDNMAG
T7 sequence (P11802 whole entry): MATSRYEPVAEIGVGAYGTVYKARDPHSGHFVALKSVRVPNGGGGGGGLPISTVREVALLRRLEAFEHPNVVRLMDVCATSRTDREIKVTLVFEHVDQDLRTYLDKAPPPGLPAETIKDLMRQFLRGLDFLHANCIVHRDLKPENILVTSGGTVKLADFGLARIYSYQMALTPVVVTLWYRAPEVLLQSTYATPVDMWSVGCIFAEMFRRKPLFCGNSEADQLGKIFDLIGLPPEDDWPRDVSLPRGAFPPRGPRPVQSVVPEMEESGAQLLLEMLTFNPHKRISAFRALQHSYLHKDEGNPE
T7 sequence (P24385 whole entry partner): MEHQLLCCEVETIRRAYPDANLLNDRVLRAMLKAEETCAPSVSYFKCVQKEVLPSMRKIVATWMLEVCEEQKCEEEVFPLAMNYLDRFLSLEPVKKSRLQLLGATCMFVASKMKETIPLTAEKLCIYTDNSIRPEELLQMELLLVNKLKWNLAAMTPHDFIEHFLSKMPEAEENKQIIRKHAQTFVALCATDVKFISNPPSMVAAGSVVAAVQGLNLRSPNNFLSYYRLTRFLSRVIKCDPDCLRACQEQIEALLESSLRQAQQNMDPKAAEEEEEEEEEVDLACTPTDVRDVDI
T11 sequence (P11362 22-822): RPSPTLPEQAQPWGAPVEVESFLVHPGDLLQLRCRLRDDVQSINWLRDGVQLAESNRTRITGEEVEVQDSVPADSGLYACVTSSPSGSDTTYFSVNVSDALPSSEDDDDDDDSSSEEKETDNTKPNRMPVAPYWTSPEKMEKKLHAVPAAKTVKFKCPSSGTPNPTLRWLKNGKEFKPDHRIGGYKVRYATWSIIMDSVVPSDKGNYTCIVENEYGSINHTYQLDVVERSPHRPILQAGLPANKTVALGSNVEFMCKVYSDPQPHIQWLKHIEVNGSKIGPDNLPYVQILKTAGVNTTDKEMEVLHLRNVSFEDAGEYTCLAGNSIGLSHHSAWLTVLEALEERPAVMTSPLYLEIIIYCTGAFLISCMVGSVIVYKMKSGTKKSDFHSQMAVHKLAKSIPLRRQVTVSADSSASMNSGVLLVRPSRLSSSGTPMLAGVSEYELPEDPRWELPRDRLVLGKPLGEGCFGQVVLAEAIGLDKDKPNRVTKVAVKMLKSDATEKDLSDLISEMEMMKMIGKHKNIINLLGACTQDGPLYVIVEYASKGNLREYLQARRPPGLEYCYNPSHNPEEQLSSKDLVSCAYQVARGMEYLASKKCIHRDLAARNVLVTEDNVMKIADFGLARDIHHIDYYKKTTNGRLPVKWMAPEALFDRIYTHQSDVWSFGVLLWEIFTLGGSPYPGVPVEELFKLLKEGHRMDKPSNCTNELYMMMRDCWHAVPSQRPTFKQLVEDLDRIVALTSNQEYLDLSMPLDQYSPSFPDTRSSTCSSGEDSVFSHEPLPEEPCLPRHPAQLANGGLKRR
T19 sequence (P12931 whole entry): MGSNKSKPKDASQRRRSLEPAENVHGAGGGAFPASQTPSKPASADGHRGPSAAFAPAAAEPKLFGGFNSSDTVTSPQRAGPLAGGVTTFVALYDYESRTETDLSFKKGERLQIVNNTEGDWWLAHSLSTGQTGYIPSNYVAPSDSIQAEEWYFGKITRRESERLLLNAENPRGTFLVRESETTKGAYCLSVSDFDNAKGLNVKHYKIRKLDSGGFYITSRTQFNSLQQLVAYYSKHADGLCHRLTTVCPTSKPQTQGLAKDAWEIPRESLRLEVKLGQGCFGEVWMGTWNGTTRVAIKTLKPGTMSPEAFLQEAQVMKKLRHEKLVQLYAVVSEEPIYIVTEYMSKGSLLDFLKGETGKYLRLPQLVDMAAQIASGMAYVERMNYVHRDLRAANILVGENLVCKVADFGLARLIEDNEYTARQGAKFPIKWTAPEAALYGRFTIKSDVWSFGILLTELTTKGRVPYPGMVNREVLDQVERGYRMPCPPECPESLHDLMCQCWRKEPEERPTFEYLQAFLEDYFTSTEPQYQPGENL
T17 sequence (Q9NYY3 whole entry): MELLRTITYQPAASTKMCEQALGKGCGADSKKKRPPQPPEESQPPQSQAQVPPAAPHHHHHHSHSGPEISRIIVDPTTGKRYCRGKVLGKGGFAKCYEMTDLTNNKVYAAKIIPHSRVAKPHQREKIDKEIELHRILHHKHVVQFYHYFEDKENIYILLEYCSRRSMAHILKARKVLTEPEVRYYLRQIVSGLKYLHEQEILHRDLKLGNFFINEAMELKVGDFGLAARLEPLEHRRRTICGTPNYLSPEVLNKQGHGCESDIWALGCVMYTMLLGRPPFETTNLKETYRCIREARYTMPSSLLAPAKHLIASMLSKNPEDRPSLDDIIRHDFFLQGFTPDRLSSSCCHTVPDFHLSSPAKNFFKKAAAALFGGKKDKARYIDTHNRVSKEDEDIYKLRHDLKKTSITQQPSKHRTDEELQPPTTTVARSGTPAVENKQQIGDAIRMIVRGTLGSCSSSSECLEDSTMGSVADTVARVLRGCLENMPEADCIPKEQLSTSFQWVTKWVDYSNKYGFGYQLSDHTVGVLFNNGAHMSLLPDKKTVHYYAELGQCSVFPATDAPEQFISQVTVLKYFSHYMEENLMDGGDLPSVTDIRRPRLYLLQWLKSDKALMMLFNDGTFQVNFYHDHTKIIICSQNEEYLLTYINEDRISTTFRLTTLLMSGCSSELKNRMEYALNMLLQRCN
T1 sequence (P31749 whole entry): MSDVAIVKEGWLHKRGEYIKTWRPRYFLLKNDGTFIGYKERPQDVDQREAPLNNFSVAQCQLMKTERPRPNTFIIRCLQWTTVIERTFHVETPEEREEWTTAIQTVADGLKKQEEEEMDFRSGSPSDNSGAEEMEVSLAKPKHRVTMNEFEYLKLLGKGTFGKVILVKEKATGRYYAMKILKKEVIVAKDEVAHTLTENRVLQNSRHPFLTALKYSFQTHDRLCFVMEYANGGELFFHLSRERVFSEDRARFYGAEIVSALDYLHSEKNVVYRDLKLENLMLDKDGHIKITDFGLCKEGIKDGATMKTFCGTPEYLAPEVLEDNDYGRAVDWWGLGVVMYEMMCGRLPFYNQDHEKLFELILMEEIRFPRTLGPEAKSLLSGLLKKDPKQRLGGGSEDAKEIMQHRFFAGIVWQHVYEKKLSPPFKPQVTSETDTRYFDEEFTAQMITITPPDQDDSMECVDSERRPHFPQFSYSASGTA
T5 sequence (Q96GD4 whole entry): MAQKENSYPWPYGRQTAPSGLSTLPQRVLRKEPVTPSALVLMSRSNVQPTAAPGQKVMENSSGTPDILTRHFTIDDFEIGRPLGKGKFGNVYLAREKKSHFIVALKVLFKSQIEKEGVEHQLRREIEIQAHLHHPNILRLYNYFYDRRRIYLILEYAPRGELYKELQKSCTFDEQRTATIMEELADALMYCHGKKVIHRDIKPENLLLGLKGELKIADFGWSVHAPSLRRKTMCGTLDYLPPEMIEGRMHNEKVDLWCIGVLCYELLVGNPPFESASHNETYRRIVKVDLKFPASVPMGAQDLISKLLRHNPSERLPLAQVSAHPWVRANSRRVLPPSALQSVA

CN1CCN(c2ccc(Nc3ncc(/C=C/C#N)c(NC4CCCC4)n3)cc2)CC1 [Compound 8h, 3-{4-Cyclopentylamino-2-[4-(4-methylpiperazin-1-yl)phenylamino]pyrimidin-5-yl}acrylonitrile]
pIC50 (DU145): > 6.00
IC50 (AKT1): > 1000 nM
IC50 (ALK): < 100 nM
IC50 (ARK5/NUAK1): < 100 nM
IC50 (Aurora A): 100 to 1000 nM
IC50 (Aurora B): < 100 nM
IC50 (CDK2/cyclin A): > 1000 nM
IC50 (CDK4/cyclin D1): 100 to 1000 nM
IC50 (CDK5/p25): > 10000 nM
IC50 (CHK1): 100 to 1000 nM
IC50 (EGFR): 100 to 1000 nM
IC50 (FGFR1): < 100 nM
IC50 (JAK2): 100 to 1000 nM
IC50 (JAK3): 100 to 1000 nM
IC50 (MEK2): > 1000 nM
IC50 (PDGFRb): < 100 nM
IC50 (PIM3): > 1000 nM
IC50 (PLK2): > 1000 nM
IC50 (RSK4): < 100 nM
IC50 (c-Src): < 100 nM
pIC50 (ABL1 (E255K)): > 7.00
pIC50 (ABL1 (G250E)): > 7.00
pIC50 (ABL1 (H396P)): > 7.00
pIC50 (ABL1 (M351T)): > 7.00
pIC50 (ABL1 (Q252H)): > 7.00
pIC50 (ABL1 (T315I)): > 7.00
pIC50 (ABL1 (Y253F)): > 7.00
pIC50 (ABL2/ARG): > 7.00
